A short description of data set [1]: Phase I study of sequential sapacitabine and seliciclib, Schedule 2: dose escalation, MTD, DLT and adverse events. The class given is in vivo. The conditions noted are these: Schedule 2: sapacitabine b.i.d. days 1-7, seliciclib b.i.d. days 8-10, 11 days of rest; 27 patients. As to the method: Phase I Study of Sequential Sapacitabine and Seliciclib in Patients with Advanced Solid Tumors
(§1) At least 3 patients were evaluated per dose level.

For data set [2] the following is noted: phase I, single agent; cited from earlier work.
In the next data set the test system is H2AX staining. As to the kind of experiment: Skin biopsies to assess DNA damage (H2AX staining) in the Phase I study. In kind it is in vivo, patients. As to the method:
as §1

The test system of the next data set is colon cancer. To be noted: model of colon cancer, compared with gemcitabine or 5-FU; cited from earlier work.
The test system of a further data set is A549 cells. The conditions noted are these: twenty-four hour treatment; cited from earlier work.

Results on two compounds are retold here after US9872874B2 (Cyclacel Limited, priority 2012, dated 2018).

Structures are written as SMILES.

As for `CCCCCCCCCCCCCCCC(=O)Nc1ccn(C2O[C@H](CO)[C@@H](O)[C@@H]2C#N)c(=O)n1` (stereo partly drawn) [sapacitabine, 1-(2-C-cyano-2-dioxy-β-D-arabino-pentofuranosyl)-N^4-palmitoyl cytosine], in data set [1], the “MTD and recommended phase II dose (RP2D)” value worked out at 50 mg b.i.d. In data set [2], the dose limiting toxicity result is “myelosuppression” and the tolerability in humans result is “well tolerated”. Further, the “increase in H2AX staining post-sapacitabine” value with H2AX staining (day 8 vs pre-treatment, n=16, P=0.007) is 2.3 fold. In the data set with colon cancer, the “increasing survival and preventing spread of colon cancer metastases to the liver” value was “superior to either gemcitabine or 5-FU”.
Regarding `CC[C@H](CO)Nc1nc(NCc2ccccc2)c2ncn(C(C)C)c2n1` [seliciclib, 6-benzylamino-2-[(R)-1-ethyl-2-hydroxyethylamino]-9-isopropylpurine], the “MTD and recommended phase II dose (RP2D)” value in data set [1] was 1200 mg b.i.d. Moreover, the “expression of key genes involved in HR (BRCA1 and RAD50) and NHEJ (Ku80, DNA-PK and NHEJ1)” value with A549 cells is recorded as “significant downregulation”. Also, the “further increase in H2AX staining post-seliciclib” value in the data set with H2AX staining (day 11 vs day 8, n=12, P=0.069) was 0.58 fold.
